System: kidney from a transgenic pig expressing human CD59, human CD46 and human DAF
Experiment: transgenic pig kidney transplant into TPC-treated baboon
Assay type: in vivo
Protocol: Immunoapheresis #1 reduced circulating IgM XNA levels to 40% of pretreatment levels. Two days later, a rebound to about 50% of pretreatment levels was observed, and after a second immunoapheresis plus administration of 250 mg TPC, circulating IgM xXNA levels were undetectable. Three days later, a rebound in IgM XNA to 35% pretreatment levels occurred, and administration of 250 mg TPC brought these levels to about 5%. […] On day 31, a kidney from a transgenic pig expressing human CD59, human CD46 and human DAF was transplanted into the baboon, and a bilateral nephrectomey was performed on the baboon native kidneys. Thus, the baboon was dependent upon the porcine kidneys for physiological function.

Substance: (αGal(1,3)Gal β 1-4 GlcNAc)4-PEG [Example 410S]
- pathology analysis of the explanted pig kidney (Baboon 376-96, transplant on day 31, euthanized post-op day 4): no evidence of hyperacute rejection
- function of the transplanted kidney (Baboon 376-96, transplant on day 31 with bilateral nephrectomy): primary nonfunction
